Where two headings read alike, the source gives them in different places.
Tested on: mice
Assay type: in vivo
Conditions: for antagonism of the analgesia induced by acetyl L-carnitine: acetyl L-carnitine 100 mg/kg BID SC for 7 days, hot plate; for Hot plate Licking latency: antagonist pre-treatment + PS (no acetyl L-carnitine)
Protocol: The analgesia induced by the acetyl L-carnitine (100 mg/kg BID, SC for 7 days) was determined in presence of some antagonists of some neurotransmission systems deeply involved in the regulation of pain threshold, and in particular the naloxone (opioid antagonist), the CGP-35348 (GABAB antagonist) and the alpha-methyl-p-tyrosine (inhibitor of the synthesis of cathecolamines).
In agreement with the standard procedures known by the person skilled in the art, the doses used for any antagonist were the minimum required to prevent the analgesia induced by morphine (7 mg/kg SC) (1, 100 e 200 mg/kg IP), baclofen (4 mg/kg SC) and amphetamine (1 mg/kg SC) (non-reported data) respectively.

[1] = dose (naloxone 1, CGP 35348 100, alpha-M-p-T 200, atropine 5 mg/kg, HC-3 1 μg, pirenzepine 0.1 μg, S-(−)-ET-126 0.1 μg ICV), before treatment

CN1[C@@H]2CC[C@H]1C[C@@H](OC(=O)C(CO)c1ccccc1)C2 (some centres unmarked) [Atropine, atropine, reference compound]
antagonism of the analgesia induced by acetyl L-carnitine: capable to antagonize the increase of the pain threshold | Hot plate Licking latency (after treatment 15 min): 13.7 ± 1.1 s | Hot plate Licking latency (after treatment 30 min): 15.4 ± 1.2 s | Hot plate Licking latency (after treatment 45 min): 13.1 ± 1.9 s | Hot plate Licking latency [1]: 14.1 ± 0.9 s

CCOC(OCC)P(=O)(O)CCCN [CGP 35348, reference compound]
Hot plate Licking latency (after treatment 15 min): 12.4 ± 1.0 s | Hot plate Licking latency (after treatment 30 min): 12.6 ± 1.3 s | Hot plate Licking latency (after treatment 45 min): 12.2 ± 1.6 s | Hot plate Licking latency [1]: 14.4 ± 0.8 s

CN1CCN(CC(=O)N2c3ccccc3C(=O)Nc3cccnc32)CC1 [Pirenzepine, pirenzepine, reference compound]
antagonism of the analgesia induced by acetyl L-carnitine: capable to antagonize the increase of the pain threshold | Hot plate Licking latency (after treatment 15 min): 13.9 ± 1.5 s | Hot plate Licking latency (after treatment 30 min): 14.5 ± 1.8 s | Hot plate Licking latency (after treatment 45 min): 15.5 ± 1.5 s | Hot plate Licking latency [1]: 13.6 ± 0.8 s

C[N+]1(C)CCOC(O)(c2ccc(-c3ccc(C4(O)C[N+](C)(C)CCO4)cc3)cc2)C1.[Br-].[Br-] (centres unmarked) [HC-3, hemicholinium-3, reference compound]
antagonism of the analgesia induced by acetyl L-carnitine: capable to antagonize the increase of the pain threshold | Hot plate Licking latency (after treatment 15 min): 13.7 ± 1.1 s | Hot plate Licking latency (after treatment 30 min): 15.4 ± 1.2 s | Hot plate Licking latency (after treatment 45 min): 13.1 ± 1.9 s | Hot plate Licking latency [1]: 14.1 ± 0.9 s

CC(N)(Cc1ccc(O)cc1)C(=O)O (stereo not drawn) [Alpha-M-p-T, alpha-methyl-p-tyrosine, reference compound]
Hot plate Licking latency (after treatment 15 min): 15.4 ± 1.6 s | Hot plate Licking latency (after treatment 30 min): 16.1 ± 1.8 s | Hot plate Licking latency (after treatment 45 min): 13.6 ± 1.5 s | Hot plate Licking latency [1]: 14.6 ± 0.9 s

CN1CCC(OC(=O)[C@H](CO)c2ccccc2)CC1 [S-(−)-ET-126, reference compound]
antagonism of the analgesia induced by acetyl L-carnitine: capable to antagonize the increase of the pain threshold | Hot plate Licking latency (after treatment 15 min): 15.3 ± 1.8 s | Hot plate Licking latency (after treatment 30 min): 16.2 ± 1.9 s | Hot plate Licking latency (after treatment 45 min): 16.1 ± 2.0 s | Hot plate Licking latency [1]: 15.0 ± 1.0 s

C=CCN1CC[C@]23c4c5ccc(O)c4O[C@H]2C(=O)CC[C@@]3(O)[C@H]1C5 [Naloxone, naloxone, reference compound]
Hot plate Licking latency (after treatment 15 min): 13.3 ± 1.3 s | Hot plate Licking latency (after treatment 30 min): 13.1 ± 1.1 s | Hot plate Licking latency (after treatment 45 min): 14.2 ± 1.3 s | Hot plate Licking latency [1]: 14.0 ± 0.7 s
